Test results: EP2818472A1, “Imidazo[4,5-c]pyridine and pyrrolo[3,2-c]pyridine compounds as G-protein-coupled receptor kinase 5 (GRK5) modulators” (Max-Planck-Gesellschaft zur Förderung der Wissenschaften …, priority 2013, dated 2014)

Each compound was assayed on beta-TC6 cells (assay: Insulin HTRF assay (relative activity Ar) in beta-TC6 cells). Details: Mus musculus, Beta-TC6, 4 h, insulin HTRF, supernatant of beta-TC6 cells, incubation with test compound at 37°C for 2, 3, 4h; read-out: Ar (relative activity).
Assay type: cell-based, mouse
Procedure, shortened: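 beta-TC6 cells (15k/well, seeded 24 or 48 h) washed, then exposed to compound in induction buffer (0.5% DMSO final) for 2, 3 or 4 h at 37°C.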

Q: Which Emax does the source give for `Oc1ccc(-c2nc3c(Nc4ccccc4)nccc3[nH]2)cc1` [Compound 365, 4-(4-anilino-1H-imidazo[4,5-c]pyridin-2-yl)phenol] here?
A: 30 to 50%

Q: `CS(=O)(=O)Nc1cccc(Nc2nccc3[nH]c(-c4ccc(O)cc4)nc23)c1` [Compound 366, N-[3-[[2-(4-hydroxyphenyl)-1H-imidazo[4,5-c]pyridin-4-yl]amino]phenyl]methanesulfonamide] was tested. Which Emax did it give?
A: 30 to 50%

Q: `COc1cccc(-c2nc3c(Nc4cc(OC)c(OC)c(OC)c4)nccc3[nH]2)c1` [Compound 367, 2-(3-methoxyphenyl)-N-(3,4,5-trimethoxyphenyl)-1H-imidazo[4,5-c]pyridin-4-amine] was tested. Which Emax did it give?
A: 30 to 50%

Q: Which Emax does the source give for `COc1cccc(Nc2nccc3[nH]c(-c4cccc(OC)c4)nc23)c1` [Compound 368, N,2-bis(3-methoxyphenyl)-1H-imidazo[4,5-c]pyridin-4-amine] here?
A: 30 to 50%

Q: Which Emax does the source give for `COc1cccc(-c2nc3c(Nc4ccc(OC)c(OC)c4)nccc3[nH]2)c1` [Compound 369, N-(3,4-dimethoxyphenyl)-2-(3-methoxyphenyl)-1H-imidazo[4,5-c]pyridin-4-amine] here?
A: > 100%

Q: `COc1cccc(-c2nc3c(Nc4ccccc4)nccc3[nH]2)c1` [Compound 370, 2-(3-methoxyphenyl)-N-phenyl-1H-imidazo[4,5-c]pyridin-4-amine] was tested. Which Emax did it give?
A: 30 to 50%

Q: Which Emax does the source give for `COc1cccc(-c2nc3c(NCCc4ccccn4)nccc3[nH]2)c1` [Compound 371, 2-(3-methoxyphenyl)-N-[2-(2-pyridyl)ethyl]-1H-imidazo[4,5-c]pyridin-4-amine] here?
A: 30 to 50%

Q: With `COc1ccc(Nc2nccc3[nH]c(-c4cccc(OC)c4)nc23)cc1` [Compound 372, 2-(3-methoxyphenyl)-N-(4-methoxyphenyl)-1H-imidazo[4,5-c]pyridin-4-amine] as the compound, how does the Emax read?
A: 50 to 100%

Q: `COc1cccc(-c2nc3c(Nc4cccc(C(F)(F)F)c4)nccc3[nH]2)c1` [Compound 373, 2-(3-methoxyphenyl)-N-[3-(trifluoromethyl)phenyl]-1H-imidazo[4,5-c]pyridin-4-amine] was tested. Which Emax did it give?
A: 0 to 30%

Q: How did the Emax turn out when `COc1cccc(-c2nc3c(Nc4cccc(O)c4)nccc3[nH]2)c1` [Compound 374, 3-[[2-(3-methoxyphenyl)-1H-imidazo[4,5-c]pyridin-4-yl]amino]phenol] was run?
A: 50 to 100%

Q: Which Emax does the source give for `COc1cccc(-c2nc3c(N4CCOCC4)nccc3[nH]2)c1` [Compound 375, 4-[2-(3-methoxyphenyl)-1H-imidazo[4,5-c]pyridin-4-yl]morpholine] here?
A: 30 to 50%

Q: Which Emax does the source give for `COc1cccc(-c2nc3c(NCC4CC4)nccc3[nH]2)c1` [Compound 376, N-(cyclopropylmethyl)-2-(3-methoxyphenyl)-1H-imidazo[4,5-c]pyridin-4-amine] here?
A: 30 to 50%

Q: With `COc1cc(Nc2nccc3[nH]c(-c4ccc(C)cc4)nc23)cc(OC)c1OC` [Compound 377, 2-(p-tolyl)-N-(3,4,5-trimethoxyphenyl)-1H-imidazo[4,5-c]pyridin-4-amine] as the compound, how does the Emax read?
A: 30 to 50%

Q: Which Emax does the source give for `COc1ccc(Nc2nccc3[nH]c(-c4ccc(C)cc4)nc23)cc1OC` [Compound 378, N-(3,4-dimethoxyphenyl)-2-(p-tolyl)-1H-imidazo[4,5-c]pyridin-4-amine] here?
A: 50 to 100%

Q: `COc1ccc(Nc2nccc3[nH]c(-c4ccc(C)cc4)nc23)cn1` [Compound 379, N-(6-methoxy-3-pyridyl)-2-(p-tolyl)-1H-imidazo[4,5-c]pyridin-4-amine] was tested. Which Emax did it give?
A: 50 to 100%

Q: How did the Emax turn out when `Cc1ccc(-c2nc3c(Nc4ccccc4)nccc3[nH]2)cc1` [Compound 380, N-phenyl-2-(p-tolyl)-1H-imidazo[4,5-c]pyridin-4-amine] was run?
A: 30 to 50%

Q: For `CCN(CC)CCNC(=O)c1ccc(Nc2nccc3[nH]c(-c4ccc(C)cc4)nc23)cc1` [Compound 381, N-(2-diethylaminoethyl)-4-[[2-(p-tolyl)-1H-imidazo[4,5-c]pyridin-4-yl]amino]benzamide], which Emax is on record?
A: 50 to 100%

Q: How did the Emax turn out when `COc1ccc(Nc2nccc3[nH]c(-c4ccc(C)cc4)nc23)cc1` [Compound 382, N-(4-methoxyphenyl)-2-(p-tolyl)-1H-imidazo[4,5-c]pyridin-4-amine] was run?
A: 30 to 50%

Q: Which Emax does the source give for `Cc1ccc(-c2nc3c(Nc4cccc(O)c4)nccc3[nH]2)cc1` [Compound 383, 3-[[2-(p-tolyl)-1H-imidazo[4,5-c]pyridin-4-yl]amino]phenol] here?
A: 50 to 100%

Q: `Cc1ccc(-c2nc3c(Nc4cccc(NS(C)(=O)=O)c4)nccc3[nH]2)cc1` [Compound 384, N-[3-[[2-(p-tolyl)-1H-imidazo[4,5-c]pyridin-4-yl]amino]phenyl]methanesulfonamide] was tested. Which Emax did it give?
A: 30 to 50%

Q: With `COCCNC(=O)c1cccc(-c2nc3c(Nc4cc(OC)c(OC)c(OC)c4)nccc3[nH]2)c1` [Compound 385, N-(2-methoxyethyl)-3-[4-(3,4,5-trimethoxyanilino)-1H-imidazo[4,5-c]pyridin-2-yl]benzamide] as the compound, how does the Emax read?
A: > 100%

Q: How did the Emax turn out when `COCCNC(=O)c1cccc(-c2nc3c(Nc4cccc(OC)c4)nccc3[nH]2)c1` [Compound 386, 3-[4-(3-methoxyanilino)-1H-imidazo[4,5-c]pyridin-2-yl]-N-(2-methoxyethyl)benzamide] was run?
A: 50 to 100%

Q: `COCCNC(=O)c1cccc(-c2nc3c(Nc4ccccc4)nccc3[nH]2)c1` [Compound 387, 3-(4-anilino-1H-imidazo[4,5-c]pyridin-2-yl)-N-(2-methoxyethyl)benzamide] was tested. Which Emax did it give?
A: 30 to 50%

Q: `COc1ccc(-c2nc3c(Nc4cc(OC)c(OC)c(OC)c4)nccc3[nH]2)cc1` [Compound 389, 2-(4-methoxyphenyl)-N-(3,4,5-trimethoxyphenyl)-1H-imidazo[4,5-c]pyridin-4-amine] was tested. Which Emax did it give?
A: 50 to 100%

Q: Which Emax does the source give for `COc1ccc(-c2nc3c(Nc4cccc(OC)c4)nccc3[nH]2)cc1` [Compound 390, N-(3-methoxyphenyl)-2-(4-methoxyphenyl)-1H-imidazo[4,5-c]pyridin-4-amine] here?
A: 30 to 50%

Q: `COc1ccc(-c2nc3c(Nc4ccccc4)nccc3[nH]2)cc1` [Compound 393, 2-(4-methoxyphenyl)-N-phenyl-1H-imidazo[4,5-c]pyridin-4-amine] was tested. Which Emax did it give?
A: 30 to 50%

Q: Which Emax does the source give for `COc1ccc(-c2nc3c(NCCc4ccccn4)nccc3[nH]2)cc1` [Compound 394, 2-(4-methoxyphenyl)-N-[2-(2-pyridyl)ethyl]-1H-imidazo[4,5-c]pyridin-4-amine] here?
A: 30 to 50%

Q: `COc1ccc(Nc2nccc3[nH]c(-c4ccc(OC)cc4)nc23)cc1` [Compound 395, N,2-bis(4-methoxyphenyl)-1H-imidazo[4,5-c]pyridin-4-amine] was tested. Which Emax did it give?
A: 50 to 100%

Q: For `COc1ccc(-c2nc3c(N4CCN(C)CC4)nccc3[nH]2)cc1` [Compound 396, 2-(4-methoxyphenyl)-4-(4-methylpiperazin-1-yl)-1H-imidazo[4,5-c]pyridine], which Emax is on record?
A: 30 to 50%

Q: `COc1ccc(-c2nc3c(Nc4cccc(O)c4)nccc3[nH]2)cc1` [Compound 397, 3-[[2-(4-methoxyphenyl)-1H-imidazo[4,5-c]pyridin-4-yl]amino]phenol] was tested. Which Emax did it give?
A: 50 to 100%

Q: For `COc1ccc(-c2nc3c(Nc4ccc(OC)c(O)c4)nccc3[nH]2)cc1` [Compound 398, 2-methoxy-5-[[2-(4-methoxyphenyl)-1H-imidazo[4,5-c]pyridin-4-yl]amino]phenol], which Emax is on record?
A: > 100%

Q: With `COc1ccc(-c2nc3c(N4CCOCC4)nccc3[nH]2)cc1` [Compound 399, 4-[2-(4-methoxyphenyl)-1H-imidazo[4,5-c]pyridin-4-yl]morpholine] as the compound, how does the Emax read?
A: 30 to 50%

Q: `COc1ccc(-c2nc3c(NCC4CC4)nccc3[nH]2)cc1` [Compound 400, N-(cyclopropylmethyl)-2-(4-methoxyphenyl)-1H-imidazo[4,5-c]pyridin-4-amine] was tested. Which Emax did it give?
A: 30 to 50%

Q: `COCCCNc1nccc2[nH]c(-c3ccc(OC)cc3)nc12` [Compound 401, 2-(4-methoxyphenyl)-N-(3-methoxypropyl)-1H-imidazo[4,5-c]pyridin-4-amine] was tested. Which Emax did it give?
A: 30 to 50%

Q: `COc1cc(Nc2nccc3[nH]c(-c4cccc(F)c4)nc23)cc(OC)c1OC` [Compound 402, 2-(3-fluorophenyl)-N-(3,4,5-trimethoxyphenyl)-1H-imidazo[4,5-c]pyridin-4-amine] was tested. Which Emax did it give?
A: 30 to 50%

Q: Which Emax does the source give for `NC(=O)c1ccc(Nc2nccc3[nH]c(-c4cccc(F)c4)nc23)cc1` [Compound 403, 4-[[2-(3-fluorophenyl)-1H-imidazo[4,5-c]pyridin-4-yl]amino]benzamide] here?
A: 30 to 50%

Q: With `COc1ccc(Nc2nccc3[nH]c(-c4cccc(F)c4)nc23)cc1OC` [Compound 404, N-(3,4-dimethoxyphenyl)-2-(3-fluorophenyl)-1H-imidazo[4,5-c]pyridin-4-amine] as the compound, how does the Emax read?
A: > 100%

Q: Which Emax does the source give for `COc1ccc(Nc2nccc3[nH]c(-c4cccc(F)c4)nc23)cn1` [Compound 405, 2-(3-fluorophenyl)-N-(6-methoxy-3-pyridyl)-1H-imidazo[4,5-c]pyridin-4-amine] here?
A: 30 to 50%

Q: How did the Emax turn out when `Fc1cccc(-c2nc3c(NCCc4ccccn4)nccc3[nH]2)c1` [Compound 406, 2-(3-fluorophenyl)-N-[2-(2-pyridyl)ethyl]-1H-imidazo[4,5-c]pyridin-4-amine] was run?
A: 50 to 100%

Q: For `COc1ccc(Nc2nccc3[nH]c(-c4cccc(F)c4)nc23)cc1` [Compound 407, 2-(3-fluorophenyl)-N-(4-methoxyphenyl)-1H-imidazo[4,5-c]pyridin-4-amine], which Emax is on record?
A: 50 to 100%

Q: `Fc1cccc(-c2nc3c(Nc4cccc(Oc5ccccc5)c4)nccc3[nH]2)c1` [Compound 408, 2-(3-fluorophenyl)-N-(3-phenoxyphenyl)-1H-imidazo[4,5-c]pyridin-4-amine] was tested. Which Emax did it give?
A: 0 to 30%

Q: With `COc1cc(Nc2nccc3[nH]c(-c4ccc5c(c4)OCCO5)nc23)cc(OC)c1OC` [Compound 409, 2-(2,3-dihydro-1,4-benzodioxin-6-yl)-N-(3,4,5-trimethoxyphenyl)-1H-imidazo[4,5-c]pyridin-4-amine] as the compound, how does the Emax read?
A: 50 to 100%

Q: For `COc1cccc(Nc2nccc3[nH]c(-c4ccc5c(c4)OCCO5)nc23)c1` [Compound 410, 2-(2,3-dihydro-1,4-benzodioxin-6-yl)-N-(3-methoxyphenyl)-1H-imidazo[4,5-c]pyridin-4-amine], which Emax is on record?
A: 30 to 50%

Q: Which Emax does the source give for `COc1ccc(Nc2nccc3[nH]c(-c4ccc5c(c4)OCCO5)nc23)cc1OC` [Compound 411, 2-(2,3-dihydro-1,4-benzodioxin-6-yl)-N-(3,4-dimethoxyphenyl)-1H-imidazo[4,5-c]pyridin-4-amine] here?
A: 50 to 100%
